Test results taken from PMC10449633 (Nature Chemical Biology, 2023).
Where “and” joins values, the source holds several entries; their conditions need not be identical. Equal values may be shown once. Read-outs that look alike come from different tables or passages of the source. Numbered stars: 1 amine (or outer) side, 2 acyl side, 3 side chain; on linkers, the order of the positions; unused ones are H or OH. Square brackets hold non-standard residues; d marks the D form. Peptide text beside a SMILES is read from it. ξ: configuration not given here. X1 = CN(C(Cc1cn(Cc2ccc(Br)cc2)c2ccccc12)C(=O)[*:2])[*:1]; ξAla(CF3) = NC(CC(F)(F)F)C(=O)O; X2 = N#CCCC(O[*:1])C(=O)[*:2]; NMeL = CN[CH](CC(C)C)C(=O)O; NMeA = CN[CH](C)C(=O)O

Assays:
SARS-CoV-2 = format: cell-based; conditions: for infectious virus particle production: 48 h
Sec61α (HEK 293 FRT) = target: T1, Sec61α (HEK 293 FRT) (Homo sapiens, UniProt P61619); experiment: Luciferase reporter assay in parental HEK 293 FRT cells; format: cell-based; conditions: HEK293, 24 h
T1 construct: host or cells: HEK293 Flp-In T-REx (parental, 'HEK 293 FRT')
T1 sequence (P60468 whole entry): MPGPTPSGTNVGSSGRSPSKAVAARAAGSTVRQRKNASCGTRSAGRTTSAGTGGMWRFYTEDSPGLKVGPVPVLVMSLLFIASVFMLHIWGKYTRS
T1 sequence (P60059 whole entry, further chain): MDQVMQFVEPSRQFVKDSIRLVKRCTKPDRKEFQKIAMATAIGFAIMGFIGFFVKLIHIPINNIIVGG
T1 sequence (P61619 whole entry): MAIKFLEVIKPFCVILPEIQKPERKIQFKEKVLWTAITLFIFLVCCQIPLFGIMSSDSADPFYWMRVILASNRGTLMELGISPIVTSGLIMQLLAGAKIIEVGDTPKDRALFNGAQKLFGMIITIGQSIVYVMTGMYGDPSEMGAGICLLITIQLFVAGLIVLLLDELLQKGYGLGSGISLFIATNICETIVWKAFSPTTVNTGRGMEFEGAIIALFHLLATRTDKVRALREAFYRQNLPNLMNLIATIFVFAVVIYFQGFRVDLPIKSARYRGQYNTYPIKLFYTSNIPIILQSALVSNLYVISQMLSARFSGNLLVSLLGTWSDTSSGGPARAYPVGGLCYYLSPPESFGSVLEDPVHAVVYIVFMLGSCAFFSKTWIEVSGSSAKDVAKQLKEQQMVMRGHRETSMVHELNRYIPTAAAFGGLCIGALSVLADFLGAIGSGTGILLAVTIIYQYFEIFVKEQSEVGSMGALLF
Excerpt: All mutants were sequence verified.

mouse splenocytes = conditions: 24 h treatment
Sec61α V303A = Sec61α V303A (Canis lupus familiaris, UniProt P38377, V303A); experiment: Luciferase reporter assay in HEK293 cells expressing Sec61α V303A; parameters: remaining activity: dose or concentration left out as unconfirmed; conditions: HEK293, 24 h, read-out: luciferase reporter activity (% of no-drug control), V303A
Sequence of Sec61α V303A (P60059 whole entry): as the sequence (P60059 whole entry, further chain) above
Sequence of Sec61α V303A (P38377 whole entry V303A): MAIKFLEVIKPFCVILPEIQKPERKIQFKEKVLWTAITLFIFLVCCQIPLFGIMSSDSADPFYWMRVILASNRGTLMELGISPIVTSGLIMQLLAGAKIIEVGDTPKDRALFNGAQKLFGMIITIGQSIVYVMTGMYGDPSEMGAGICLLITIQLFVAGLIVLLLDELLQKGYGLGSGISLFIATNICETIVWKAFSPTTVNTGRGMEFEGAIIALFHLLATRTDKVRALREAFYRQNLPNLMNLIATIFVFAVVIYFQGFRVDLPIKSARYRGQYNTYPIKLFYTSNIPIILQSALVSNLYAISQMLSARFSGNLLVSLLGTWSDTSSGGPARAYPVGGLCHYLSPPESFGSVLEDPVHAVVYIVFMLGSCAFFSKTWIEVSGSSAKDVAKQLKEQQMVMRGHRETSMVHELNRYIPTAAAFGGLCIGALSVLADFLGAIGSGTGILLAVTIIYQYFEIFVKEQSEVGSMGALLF
Sequence of Sec61α V303A (P60468 whole entry, further chain): as the sequence (P60468 whole entry) above
Experimental: (§1) Data are mean values ± s.d. from n = 2 independent experiments.
(§2) HEK293T cells (0.3 × 10^6) were seeded per well of a six-well plate and incubated at 37 °C in 5% CO2 for 24 h to adhere. Each of the two wells was transfected with 1 µg of plasmid encoding a luciferase with the signal peptide of either VCAM1 or pPL using PEI in a 5:1 ratio, after which cells were returned to the incubator for a further 24 h. Transfected cells were then resuspended following trypsinization, cell count estimated using a TC20 Automated Cell Counter (BioRad) and diluted to seed a 96-well flat-bottom plate with 1.6 × 10^4 cells per well. […] Cells were then incubated for a further 24 h, after which the luciferase-containing media were transferred to a clean 96-well plate and stored at −20 °C. Luciferase activity of the media was estimated using a Gaussia-GLOW Juice Luciferase Assay kit from PJK Biotech GmbH as per the manufacturer’s instructions. Luminescence was measured using an EnSpire Multimode plate reader (PerkinElmer). Background luminescence from media placed in a well with neither cells nor drug was subtracted from all values, and measurements were calculated as a percentage of luminescence intensity of a well expressing the appropriate luciferase construct in the absence of any drug. Curves were fitted, and IC50 values were calculated using GraphPad Prism 8.
(§3) WT canine Sec61 was cloned into pcDNA5/FRT/TO (Thermo Fisher Scientific), and point mutations were generated using PCR. All mutants were sequence verified. HEK293 Flp-In T-REx cells (Thermo Fisher Scientific, R78007) were cultured in Dulbecco’s modified Eagle’s medium (Gibco) supplemented with 10% FBS (Gibco) at 37 °C in a humidified 5% CO2 atmosphere. Approximately 0.3 µg of pOG44 and 1 µg of targeting construct plasmids were mixed in 250 µl of OptiMEM (Thermo Fisher Scientific, 51985-026). A total of 3 µl (3 µg) Lipofectamine3000 transfection reagent was then added to the DNA mix and incubated at room temperature for 20 min, and the whole mixture was added to the cells. Cells were exposed to 100 µg ml^−^1 hygromycin B (Invitrogen) and 10 µg ml^−^1 blasticidin for 3–4 weeks until the appearance of resistant colonies. Colonies were expanded into T75 flasks and induced with doxycycline (Sigma-Aldrich, D9891) at a concentration of 1–5 µg ml^−^1 for 48 h. Cells were collected, and total RNA was extracted followed by cDNA amplification and sequencing of Sec61 with gene-specific PCR primers to confirm. Cells were then used for the luciferase reporter assays as above.
(§4) Data are mean values ± SD and are representative of n = 2 independent experiments.

Sec61α R66I = Sec61α R66I (Canis lupus familiaris, UniProt P38377, R66I); experiment: Luciferase reporter assay in HEK293 cells expressing Sec61α R66I; parameters: remaining activity: dose or concentration left out as unconfirmed
Sequence of Sec61α R66I (P38377 whole entry R66I): as the sequence (P38377 whole entry V303A) above, with R66I, A303V counted along it
Sequence of Sec61α R66I (P60059 whole entry, further chain): as the sequence (P60059 whole entry, further chain) above
Sequence of Sec61α R66I (P60468 whole entry, further chain): as the sequence (P60468 whole entry) above
Experimental: as §1, §2, §3, §4

Vero E6 cells = conditions: Mock infected 48 h

## CC(C)CC1NC(=O)C(Cc2cn(Cc3ccc(Br)cc3)c3ccccc23)N(C)C(=O)C(CC(F)(F)F)NC(=O)C(CC(C)C)N(C)C(=O)C(CC(F)(F)F)NC(=O)C(CCC#N)OC(=O)C(C)N(C)C1=O (centres unmarked) [KZR-8445] (cyclo([X1]L[NMeA][X2][ξAla(CF3)][NMeL][ξAla(CF3)]); configuration not given here)
SARS-CoV-2; 0.01 uM
  infectious virus particle production: 2000000 TCID50 per milliliter and 1175555 TCID50 per milliliter
SARS-CoV-2; 10 uM
  infectious virus particle production: 928.318 TCID50 per milliliter and 632.456 TCID50 per milliliter
SARS-CoV-2; Vero cells
  CoV-2 replication: blocked
Sec61α (HEK 293 FRT); Drug nM (log10) 0.18303, read-out: luciferase reporter activity (% of no-drug control)
  remaining activity at 0.00152 µM: 88.7%
Sec61α (HEK 293 FRT); Drug nM (log10) 0.660151, read-out: luciferase reporter activity (% of no-drug control)
  remaining activity at 0.00457 µM: 75.3%
Sec61α (HEK 293 FRT); Drug nM (log10) 1.61439, read-out: luciferase reporter activity (% of no-drug control)
  remaining activity at 0.04115 µM: 27%
Sec61α (HEK 293 FRT); Drug nM (log10) 2.09151, read-out: luciferase reporter activity (% of no-drug control)
  remaining activity at 0.1235 µM: 12.8%
Sec61α (HEK 293 FRT); Drug nM (log10) 2.56864, read-out: luciferase reporter activity (% of no-drug control)
  remaining activity at 0.37 µM: 4.89%
Sec61α (HEK 293 FRT); Drug nM (log10) 3.04576, read-out: luciferase reporter activity (% of no-drug control)
  remaining activity at 1.111 µM: 2.41%
Sec61α (HEK 293 FRT); Drug nM (log10) 3.52288, read-out: luciferase reporter activity (% of no-drug control)
  remaining activity at 3.33 µM: 2.03%
Sec61α (HEK 293 FRT); Drug nM (log10) 4, read-out: luciferase reporter activity (% of no-drug control)
  remaining activity at 10 µM: 2.36%
Sec61α (HEK 293 FRT); Drug nM (log10) -0.29409, read-out: luciferase reporter activity (% of no-drug control)
  remaining activity at 0.00050805 µM: 92.4%
Mouse splenocytes; 0.025 nM
  cell viability (CTG assay): 106.047 and 100.001
Mouse splenocytes; 0.25 nM
  cell viability (CTG assay): 110.01 and 102.05
Mouse splenocytes; 2.5 nM
  cell viability (CTG assay): 105.776 and 105.957
Mouse splenocytes; 25 nM
  cell viability (CTG assay): 105.176 and 97.9523
Mouse splenocytes; 250 nM
  cell viability (CTG assay): 107.467 and 93.3938
Mouse splenocytes; 2500 nM
  cell viability (CTG assay): 99.7089 and 85.9729
Mouse splenocytes; 25000 nM
  cell viability (CTG assay): 95.1208 and 88.5789
Sec61α V303A; Drug nM (log10) 0.18303
  remaining activity at 0.00018303 µM: 95.1%
Sec61α V303A; Drug nM (log10) 0.660151
  remaining activity at 0.000660151 µM: 82.2%
Sec61α V303A; Drug nM (log10) 1.13727
  remaining activity at 0.00113727 µM: 64.5%
Sec61α V303A; Drug nM (log10) 1.61439
  remaining activity: 42%
Sec61α V303A; Drug nM (log10) 2.09151
  remaining activity: 21.1%
Sec61α V303A; Drug nM (log10) 2.56864
  remaining activity: 8.79%
Sec61α V303A; Drug nM (log10) 3.04576
  remaining activity: 3.93%
Sec61α V303A; Drug nM (log10) 3.52288
  remaining activity: 2.95%
Sec61α V303A; Drug nM (log10) 4
  remaining activity at 0.004 µM: 3.21%
Sec61α V303A; Drug nM (log10) -0.29409
  remaining activity at 0.00050805 µM: 96.2%
Sec61α R66I; HEK293, 24 h, read-out: luciferase reporter activity (% of no-drug control), R66I, Drug nM (log10) 0.18303
  remaining activity at 0.00018303 µM: 90.3%
Sec61α R66I; HEK293, 24 h, read-out: luciferase reporter activity (% of no-drug control), R66I, Drug nM (log10) 0.660151
  remaining activity at 0.000660151 µM: 85.2%
Sec61α R66I; HEK293, 24 h, read-out: luciferase reporter activity (% of no-drug control), R66I, Drug nM (log10) 1.13727
  remaining activity at 0.00113727 µM: 74.3%
Sec61α R66I; HEK293, 24 h, read-out: luciferase reporter activity (% of no-drug control), R66I, Drug nM (log10) 1.61439
  remaining activity: 58.4%
Sec61α R66I; HEK293, 24 h, read-out: luciferase reporter activity (% of no-drug control), R66I, Drug nM (log10) 2.09151
  remaining activity: 48.6%
Sec61α R66I; HEK293, 24 h, read-out: luciferase reporter activity (% of no-drug control), R66I, Drug nM (log10) 2.56864
  remaining activity: 41.2%
Sec61α R66I; HEK293, 24 h, read-out: luciferase reporter activity (% of no-drug control), R66I, Drug nM (log10) 3.04576
  remaining activity: 39.3%
Sec61α R66I; HEK293, 24 h, read-out: luciferase reporter activity (% of no-drug control), R66I, Drug nM (log10) 3.52288
  remaining activity: 35.2%
Sec61α R66I; HEK293, 24 h, read-out: luciferase reporter activity (% of no-drug control), R66I, Drug nM (log10) 4
  remaining activity at 0.004 µM: 39%
Sec61α R66I; HEK293, 24 h, read-out: luciferase reporter activity (% of no-drug control), R66I, Drug nM (log10) -0.29409
  remaining activity at 0.00050805 µM: 90%
Sec61α R66I; HEK293 cells
  effect of R66I mutation on sensitivity in secreted GLuc assay: conferred resistance
Vero E6 cells; 0.01 uM
  cell viability: 91.0268 and 102.167 and 114.581
Vero E6 cells; 0.04 uM
  cell viability: 90.9801 and 99.0668 and 98.0954
Vero E6 cells; 0.12 uM
  cell viability: 93.1234 and 96.6644 and 96.0334
Vero E6 cells; 0.37 uM
  cell viability: 79.1404 and 83.8559 and 91.7442
Vero E6 cells; 1.11 uM
  cell viability: 83.2343 and 88.2826 and 88.422
Vero E6 cells; 3.33 uM
  cell viability: 85.0888 and 89.2631 and 88.8876
Vero E6 cells; 10 uM
  cell viability: 76.0738 and 86.0259 and 84.7152
